Molecules are shown by their SMILES. Bounds are passed on as bounds.

The results in this text go back to patent publication US20250100977A1, “MERCAPTOPYRIMIDINE COMPOUNDS THAT INHIBIT NONHOMOLOGOUS END JOINING AND METHODS THEREOF” (INDIAN INSTITUTE OF SCIENCE, priority 2021, published 2025).

The target in data set [1] is T1, DNA Ligase IV/XRCC4 (Homo sapiens, UniProt P49917).
T1 construct: made in house; host or cells: bacteria
Briefly: Inhibition of end joining by purified DNA Ligase IV/XRCC4. As to conditions: for inhibition at 50 µM: Ligase IV; for Inhibition of end joining compared with control: 200 μM, purified Ligase IV/XRCC4; for Concentration from which inhibition of end joining was seen: dose titration with Ligase IV. The class given is biochemical. As to the method:
The compounds of Formula I were evaluated for their specific inhibition activity towards enzyme DNA Ligase IV. DNA Ligase IV/XRCC4 was purified from bacteria using Ni-NTA column (FIG. 2A), and used for evaluation of inhibition of end joining of the compounds (01-41) at 200 μM (FIGS. 2B, C and D). The compounds were incubated with purified Ligase IV/XRCC4 in suitable NHEJ buffer at 25° C. for 30 min, followed by addition of radiolabeled DNA, and further incubation for 1 h at 25° C. Products were purified using phenol: chloroform and run on denaturing PAGE.
(§1) Effects of these compounds on NHEJ and Ligase IV mediated joining were evaluated (FIG. 4A-K). The reactions were terminated by EDTA (10 mM), products were purified using phenol/chloroform, precipitated with chilled ethanol and glycogen, and resolved on 8% denaturing PAGE. The gel was dried, exposed, and signal was detected using phosphor Imager FLA9000 (Fuji, Japan), and quantified in MultiGauge software expressed as Photo Stimulated Luminescence Units (PSLU). Inhibition of end joining was reported at 200 μM and 100 μM, respectively for SCR116 and SCR132 (FIGS. 4A, B, C and D), with >50% inhibition at 200 and 100 μM concentrations, respectively. […] FIG. 4K depict the purification profile of Ligase IV and XRCC4. Further FIGS. 4L-M represent inhibition of end joining catalysed by (FIG. 4L) purified Ligase III/XRCCI in presence of SCR116 and SCR132 (50, 100, 200, 500, 1000 μM) and (FIG. 4M) by purified Ligase I in presence of increasing concentrations of SCR116 and SCR132 (10, 50, 100, 200, 500, 1000 μM).

Data set [2] has as its target T2, Ligase I (Homo sapiens, UniProt P18858).
T2 construct: made in house; host or cells: bacteria
Briefly: Inhibition of end joining by purified Ligase I. The data set is classed as biochemical. Particulars: up to highest concentration of 1000 μM. The protocol: The compounds of the present invention were analysed for inhibition of end joining with purified Ligase I (FIG. 3A) and Ligase III/XRCC1 (FIG. 3F). The compounds were incubated with either purified Ligase I (FIG. 3B-E) or with Ligase III/XRCC1 (FIGS. 3G-J) in suitable NHEJ buffer at 25° C. for 30 min, followed by addition of radiolabeled DNA, and further incubation for 1 h at 25° C. Products were purified using phenol: chloroform, and run on denaturing PAGE.
as §1, with “Further FIGS. 4L-M represent inhibition of end joining catalysed by (FIG. 4L) purified Ligase III/XRCCI in presence of SCR116 and SCR132 (50, 100, 200, 500, 1000 μM) and (FIG. 4M) by purified Ligase I in presence of increasing concentrations of SCR116 and SCR132 (10, 50, 100, 200, 500, 1000 μM).” left out

Data set [3] has as its system Supt1. Nature of the data set: Cytotoxicity in Supt1. Particulars: Homo sapiens, SUP-T1; Table 2; read-out: IC50 in cancer cell lines, Supt1. The data set is classed as cell-based. As to the method:
(§2) Ligase IV specificity of the compounds of the present invention inside the cells were also determined using Ligase IV knock out (KO) cell line N114 compared to the wild type Nalm6 (Table 2, FIGS. 5C, D, E and F). […] Table 1 showing IC50 of SCR7 derivatives in cancer cell lines Nalm6 and HeLa. IC50 was calculated using GraphPad Prism software from the percentage of viable cells following treatment with the compounds at 48 h. Table 2 showing IC50 of SCR116 and SCR132 in a panel of 16 cancer cell lines.

Data set [4] concerns Raji. Nature of the data set: Cytotoxicity in Raji. The class given is cell-based. Particulars: Homo sapiens, Raji; Table 2; read-out: IC50 in cancer cell lines, Raji. As to the method: as §2
Data set [5] deals with Ligase IV knock out (KO) cell line N114. Briefly: Cytotoxicity in Ligase IV knock out cell line N114. As to conditions: Table 2, 48 h, read-out: IC50 in cancer cell lines, N114. The class given is cell-based. The protocol: as §2
Data set [6] has as its system LN229. Briefly: Cytotoxicity in LN229. The class given is cell-based. Particulars: Homo sapiens, LN-229; Table 2; read-out: IC50 in cancer cell lines, LN229. As to the method:
as §2

Data set [7] concerns EAC. Briefly: Cytotoxicity in EAC. The data set is classed as cell-based, mice. As to conditions: Mus musculus; Table 2; read-out: IC50 in cancer cell lines, EAC. The protocol:
as §2

The subject of data set [8] is Molt3. Nature of the data set: Cytotoxicity in Molt3. The class given is cell-based. Particulars: Homo sapiens, MOLT-3; Table 2; read-out: IC50 in cancer cell lines, Molt3. As to the method:
as §2

Data set [9] deals with 53BP1 foci in HeLa cells. Nature of the data set: 53BP1 immunofluorescence in HeLa cells. The data set is classed as cell-based. Particulars: alone or alongside radiation; 24 h. The protocol: (§3) FIG. 7(A-F) depicts evaluation of generation of double-strand breaks inside cells treated with compounds SCR116 and SCR132 alone or in combination, A. Immunofluorescence with 53BP1 in HeLa cells treated with increasing concentration of SCR116 (2 and 5 μM) and SCR132 (1 and 2 μM). Nucleus is stained in red using propidium iodide, while green signal represents 53BP1 foci (FITC). B. Quantification of 53BP1 foci inside HeLa cells treated with SCR116 and SCR132 for 24 h, as denoted using scatter plot. Significance was calculated using ANOVA in GraphPad Prism software (ns, not significant; *p<0.05, **p<0.005, ***p<0.0001). C-D. Bar graphs showing percentage of viable cells following treatment with the compounds alone, or in presence of γ-radiation (0.5 Gy) at 24 (C) and 48 h (D). 2 and 4 μM SCR116, and 1 and 2 μM SCR132 were used. E. Bar graph showing percentage of viable cells following treatment with SCR116 (0.375 μM) or SCR132 (0.125 μM) alone, or in presence of 0.25 μM etoposide at 48 h. F. Bar graph showing percentage of viable cells following treatment with SCR116 (0.375 μM) or SCR132 (0.125 μM) alone, or in presence of 0.375 μM 5-FU at 48 h, in accordance with an implementation of the present disclosure.

For data set [10], the system named is 53BP1 foci in Nalm6. Nature of the data set: 53BP1 foci in Nalm6 cells. The data set is classed as cell-based. Particulars: 24 h, SCR116 2, 5 μM, SCR132 1, 2 μM. As to the method:
FIG. 8(A-B) depicts accumulation of DSBs inside cells following treatment with the compounds. A. Representative images for HeLa cells subjected to neutral comet assay following treatment with SCR116 and SCR132 for 24 h. […] FIG. 8C, D are representative images for Nalm6 cells (C) and N114 cells (D) following treatment with SCR116 and SCR132 for 24 h. and FIG. 8E, F are scatter plot depicting quantification of percentage of 53BP1 foci treated with SCR116 (2, 5 μM) and SCR132 (1, 2 μM) in Nalm6 and N114.

In data set [11] the test system is cancer cells. Nature of the data set: Cytotoxicity in combination with radiation or chemotherapeutic agents. The class given is cell-based. As to conditions: combined with 0.5 and 1 Gy γ-radiation, or 5-FU and etoposide. As to the method:
as §3

The subject of data set [12] is SCC084 derived xenograft. Nature of the data set: Mouse xenograft model, SCC084. The data set is classed as in vivo. As to conditions: oral cancer SCC084 xenograft; 8 oral doses.

T1 sequence (P49917 whole entry): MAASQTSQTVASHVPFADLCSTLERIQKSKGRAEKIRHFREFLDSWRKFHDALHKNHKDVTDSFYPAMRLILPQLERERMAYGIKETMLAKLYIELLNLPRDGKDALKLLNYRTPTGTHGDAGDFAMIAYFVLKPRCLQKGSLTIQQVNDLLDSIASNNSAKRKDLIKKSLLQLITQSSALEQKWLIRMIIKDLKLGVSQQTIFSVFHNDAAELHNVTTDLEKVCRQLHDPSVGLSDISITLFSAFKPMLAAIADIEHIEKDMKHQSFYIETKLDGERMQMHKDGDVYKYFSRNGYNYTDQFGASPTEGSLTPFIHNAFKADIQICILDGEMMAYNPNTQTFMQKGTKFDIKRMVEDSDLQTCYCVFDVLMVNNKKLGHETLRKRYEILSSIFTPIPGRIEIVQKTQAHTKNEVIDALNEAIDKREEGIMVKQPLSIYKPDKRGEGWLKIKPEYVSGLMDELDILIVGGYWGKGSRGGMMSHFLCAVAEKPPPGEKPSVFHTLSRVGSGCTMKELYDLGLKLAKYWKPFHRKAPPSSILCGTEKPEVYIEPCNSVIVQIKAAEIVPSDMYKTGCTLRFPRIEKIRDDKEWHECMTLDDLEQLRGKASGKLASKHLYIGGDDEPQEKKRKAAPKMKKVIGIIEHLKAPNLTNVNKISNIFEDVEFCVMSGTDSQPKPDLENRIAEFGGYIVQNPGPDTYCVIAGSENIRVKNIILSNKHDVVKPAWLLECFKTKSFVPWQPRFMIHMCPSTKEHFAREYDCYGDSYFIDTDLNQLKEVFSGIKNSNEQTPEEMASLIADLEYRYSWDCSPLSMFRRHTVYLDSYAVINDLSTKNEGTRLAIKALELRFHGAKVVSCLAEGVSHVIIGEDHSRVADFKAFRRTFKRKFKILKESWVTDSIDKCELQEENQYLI
T1 sequence (Q13426 whole entry partner): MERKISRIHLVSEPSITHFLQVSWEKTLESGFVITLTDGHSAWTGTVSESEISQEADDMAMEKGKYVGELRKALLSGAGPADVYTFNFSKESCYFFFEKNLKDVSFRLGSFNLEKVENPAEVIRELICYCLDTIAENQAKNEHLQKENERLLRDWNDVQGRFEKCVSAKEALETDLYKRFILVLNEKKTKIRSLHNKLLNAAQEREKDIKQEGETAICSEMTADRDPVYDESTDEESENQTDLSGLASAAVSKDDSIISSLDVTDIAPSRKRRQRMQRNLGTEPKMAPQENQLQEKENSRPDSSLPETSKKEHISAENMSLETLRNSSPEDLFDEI
T2 sequence (P18858 whole entry): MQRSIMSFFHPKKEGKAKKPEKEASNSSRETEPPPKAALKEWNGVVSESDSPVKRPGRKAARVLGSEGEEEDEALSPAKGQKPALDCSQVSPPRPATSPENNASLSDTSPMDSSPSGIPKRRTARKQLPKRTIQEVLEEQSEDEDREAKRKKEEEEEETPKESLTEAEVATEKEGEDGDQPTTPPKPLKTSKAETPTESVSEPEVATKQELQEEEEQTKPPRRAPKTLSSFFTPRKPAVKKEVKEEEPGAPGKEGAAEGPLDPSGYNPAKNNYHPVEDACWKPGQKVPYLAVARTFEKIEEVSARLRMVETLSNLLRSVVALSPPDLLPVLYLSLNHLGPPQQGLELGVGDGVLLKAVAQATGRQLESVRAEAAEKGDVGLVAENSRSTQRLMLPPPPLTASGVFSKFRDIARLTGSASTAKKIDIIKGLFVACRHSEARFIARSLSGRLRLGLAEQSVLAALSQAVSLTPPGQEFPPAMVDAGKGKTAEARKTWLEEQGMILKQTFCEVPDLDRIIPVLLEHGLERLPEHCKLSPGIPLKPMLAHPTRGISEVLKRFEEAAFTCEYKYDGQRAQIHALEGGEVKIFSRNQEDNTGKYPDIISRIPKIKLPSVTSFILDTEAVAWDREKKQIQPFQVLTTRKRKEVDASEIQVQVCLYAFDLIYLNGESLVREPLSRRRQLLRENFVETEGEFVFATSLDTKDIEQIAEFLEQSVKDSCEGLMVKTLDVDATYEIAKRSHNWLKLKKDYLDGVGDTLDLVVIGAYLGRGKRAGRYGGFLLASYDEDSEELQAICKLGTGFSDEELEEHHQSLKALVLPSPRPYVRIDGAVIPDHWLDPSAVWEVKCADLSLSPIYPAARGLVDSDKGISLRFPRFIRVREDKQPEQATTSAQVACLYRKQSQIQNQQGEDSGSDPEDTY

With `Nc1nc(S)nc(O)c1/N=C/c1sc(Cl)nc1Cl` [Compound 32, (E)-6-amino-5-(((2,4-dichlorothiazol-5-yl)methylene)amino)-2-mercaptopyrimidin-4-ol], the inhibition at 50 µM in data set [1] was > 50%. In data set [1], the “Inhibition of end joining compared with control” value is “significant inhibition of end joining”. The “Concentration from which inhibition of end joining was seen” value in data set [1] is 10 µM. Also, the “Inhibition of end joining with Ligase I” value in [2] is listed as “no inhibition”. Besides, the IC50 in data set [3] came to 0.734 µM; in data set [4], 1.59 µM; in data set [5], 10.1 µM; in data set [6], 7.7 µM; in data set [7], 14.8 µM; in data set [8] it was 0.795 µM. Also, in data set [9], the “DNA damage marker 53BP1” value was “increase in DNA damage marker 53BP1”. Moreover, the 53BP1 foci entry in data set [10] is on record as “significant increase in 53BP1 foci”. The Cytotoxicity in combination result in data set [11] was “Increased cytotoxicity”. In addition, the Tumor volume entry in [12] is “significant reduction in tumor volume”.
Consider `Nc1nc(S)nc(O)c1/N=C/c1ccc([N+](=O)[O-])s1` [Compound 16, (E)-6-amino-2-mercapto-5-(((5-nitrothiophen-2-yl)methylene)amino)pyrimidin-4-ol], for which the inhibition at 50 µM in data set [1] was > 50%. The “Inhibition of end joining compared with control” value in [1] is on record as “significant inhibition of end joining”. The “Concentration from which inhibition of end joining was seen” value in data set [1] is 5 µM. Moreover, the “Inhibition of end joining with Ligase I” value in data set [2] is reported as “no inhibition”. Besides, the IC50 in data set [3] was determined as 1.32 µM; in data set [4], 4.37 µM; in data set [5], 14.1 µM; in data set [6] it was 5.6 µM; in data set [7], 16.5 µM; in data set [8], 3.1 µM. The “DNA damage marker 53BP1” value in data set [9] was “increase in DNA damage marker 53BP1”. Besides, the 53BP1 foci entry in data set [10] was “significant increase in 53BP1 foci”. In addition, in data set [11], the Cytotoxicity in combination entry is reported as “Increased cytotoxicity”. Further, in [12], the Tumor volume entry is given as “significant reduction in tumor volume”.
